Columns and labels:
[1] = Mutagenicity in Salmonella typhimurium TA97 assessed as revertant/ug measured after 20 mins in absence of S9 fraction by microsome assay; format: toxicity; settings: salmonella enterica subsp. enterica serovar typhimurium, microsomes
[2] = Genotoxicity in human HepG2 assessed as survival at 376 uM measured after 24 hrs by micronucleus test (reference value: 100%); format: toxicity, cell-based; settings: HepG2 cells, read-out: Survival
RAW264.7 [3] = experiment: Genotoxicity in mouse RAW264.7 cells assessed as number of micronucleated cells at 188 uM measured after 24 hrs by micronucleus test (reference value: 12 to 15); format: toxicity, cell-based; settings: raw264.7, 24 h
[4] = Genotoxicity in mouse RAW264.7 cells assessed as survival at 1880 uM measured after 24 hrs by micronucleus test (reference value: 100%); format: toxicity, cell-based; settings: read-out: Survival
[5] = Selectivity index, ratio of GI50 for mouse RAW264.7 cells assessed as reduction in cell viability measured after 24 hrs by WST1 assay to IC50 for antitrypanosomal activity against bloodstream form of Trypanosoma cruzi Y trypomastigotes infected in African green monkey Vero cells; format: toxicity; settings: read-out: Selectivity Index
HepG2 [6] = experiment: Genotoxicity in human HepG2 assessed as number of micronucleated cells at 3760 uM measured after 24 hrs by micronucleus test (reference value: 14 to 18); format: toxicity, cell-based; settings: hepg2, 24 h
RAW264.7 [7] = experiment: Cytotoxicity against mouse RAW264.7 cells at 18.8 to 376 uM measured after 24 hrs by LDH assay; format: cell-based; settings: raw264.7, 24 h, dose 18.8-376 µM
RAW264.7 [8] = experiment: Genotoxicity in mouse RAW264.7 cells assessed as number of micronucleated cells at 376 uM measured after 24 hrs by micronucleus test (reference value: 12 to 15); format: toxicity, cell-based; settings: raw264.7, 24 h
[9] = Toxicity in Salmonella typhimurium YG1024 at 5 to 100 ug/plate after 20 mins by colony counting method; settings: salmonella enterica subsp. enterica serovar typhimurium, dose 5-100 µg
[10] = Mutagenicity in Salmonella typhimurium TA98 measured after 20 mins in presence of S9 fraction by microsome assay; format: toxicity, subcellular; settings: salmonella enterica subsp. enterica serovar typhimurium, s9, 20 min, dose 5-100 µg
[11] = Mutagenicity in Salmonella typhimurium TA97 measured after 20 mins in absence of S9 fraction by microsome assay; format: toxicity; settings: salmonella enterica subsp. enterica serovar typhimurium, microsomes, dose 5-100 µg
Trypanosoma cruzi [12] = experiment: Antitrypanosomal activity against bloodstream form of Trypanosoma cruzi Y trypomastigotes infected in African green monkey Vero cells assessed as increase in parasite lysis measured after 24 hrs by Neubauer chamber method; format: functional, organism-based
Trypanosoma cruzi [13] = experiment: Antitrypanosomal activity against Trypanosoma cruzi Y axenic amastigotes infected in African green monkey Vero cells after 24 hrs by MTT assay; format: functional, organism-based
[14] = Toxicity in Salmonella typhimurium YG1021 at 5 to 100 ug/plate after 20 mins by colony counting method; settings: salmonella enterica subsp. enterica serovar typhimurium, dose 5-100 µg
[15] = Mutagenicity in Salmonella typhimurium TA98 measured after 20 mins in absence of S9 fraction by microsome assay; format: toxicity; settings: salmonella enterica subsp. enterica serovar typhimurium, microsomes, dose 5-100 µg
[16] = Genotoxicity in mouse RAW264.7 cells assessed as survival at 376 uM measured after 24 hrs by micronucleus test (reference value: 100%); format: toxicity, cell-based; settings: read-out: Survival
[17] = Cytotoxicity against human HepG2 cells assessed as reduction in cell viability measured after 24 hrs by WST1 assay; format: cell-based
[18] = Mutagenicity in Salmonella typhimurium YG1021 at 5 to 100 ug/plate after 20 mins by microsome assay; format: toxicity; settings: salmonella enterica subsp. enterica serovar typhimurium, microsomes
[19] = Mutagenicity in Salmonella typhimurium TA97 measured after 20 mins in presence of S9 fraction by microsome assay; format: toxicity, subcellular; settings: salmonella enterica subsp. enterica serovar typhimurium, s9, 20 min, dose 5-100 µg
RAW264.7 [20] = experiment: Genotoxicity in mouse RAW264.7 cells assessed as number of micronucleated cells at 1880 uM measured after 24 hrs by micronucleus test (reference value: 12 to 15); format: toxicity, cell-based; settings: raw264.7, 24 h
[21] = Genotoxicity in mouse RAW264.7 cells assessed as survival at 188 uM measured after 24 hrs by micronucleus test (reference value: 100%); format: toxicity, cell-based; settings: read-out: Survival
[22] = Genotoxicity in mouse RAW264.7 cells assessed as survival at 3760 uM measured after 24 hrs by micronucleus test (reference value: 100%); format: toxicity, cell-based; settings: read-out: Survival
[23] = Mutagenicity in Salmonella typhimurium TA100 measured after 20 mins in presence of S9 fraction by microsome assay; format: toxicity, subcellular; settings: salmonella enterica subsp. enterica serovar typhimurium, s9, 20 min, dose 5-100 µg
[24] = Genotoxicity in human HepG2 assessed as survival at 188 uM measured after 24 hrs by micronucleus test (reference value: 100%); format: toxicity, cell-based; settings: HepG2 cells, read-out: Survival
[25] = Selectivity index, ratio of GI50 for human HepG2 cells assessed as reduction in cell viability measured after 24 hrs by WST1 assay to IC50 for antitrypanosomal activity against bloodstream form of Trypanosoma cruzi Y trypomastigotes infected in African green monkey Vero cells; format: toxicity; settings: read-out: Selectivity Index
HepG2 [26] = experiment: Genotoxicity in human HepG2 assessed as mitotic index at 1880 uM measured after 24 hrs by micronucleus test (reference value: 61 to 108); format: toxicity, cell-based; settings: hepg2, 24 h
[27] = Selectivity index, ratio of GI50 for human HepG2 cells assessed as reduction in cell viability measured after 24 hrs by WST1 assay to IC50 for antitrypanosomal activity against Trypanosoma cruzi Y axenic amastigotes infected in African green monkey Vero cells; format: toxicity; settings: read-out: Selectivity Index
HepG2 [28] = experiment: Cytotoxicity against human HepG2 cells at 376 uM measured after 24 hrs by LDH assay; format: cell-based; settings: hepg2, 24 h
[29] = Genotoxicity in human HepG2 assessed as survival at 3760 uM measured after 24 hrs by micronucleus test (reference value: 100%); format: toxicity, cell-based; settings: HepG2 cells, read-out: Survival
RAW264.7 [30] = experiment: Genotoxicity in mouse RAW264.7 cells assessed as mitotic index at 188 uM measured after 24 hrs by micronucleus test (reference value: 40 to 249); format: toxicity, cell-based; settings: raw264.7, 24 h
HepG2 [31] = experiment: Genotoxicity in human HepG2 assessed as mitotic index at 188 uM measured after 24 hrs by micronucleus test (reference value: 61 to 108); format: toxicity, cell-based; settings: hepg2, 24 h
HepG2 [32] = experiment: Genotoxicity in human HepG2 assessed as number of micronucleated cells at 376 uM measured after 24 hrs by micronucleus test (reference value: 14 to 18); format: toxicity, cell-based; settings: hepg2, 24 h
RAW264.7 [33] = experiment: Genotoxicity in mouse RAW264.7 cells assessed as number of micronucleated cells at 3760 uM measured after 24 hrs by micronucleus test (reference value: 12 to 15); format: toxicity, cell-based; settings: raw264.7, 24 h
[34] = Cytotoxicity against mouse RAW264.7 cells assessed as reduction in cell viability measured after 24 hrs by WST1 assay; format: cell-based
[35] = Mutagenicity in Salmonella typhimurium TA100 assessed as revertant/ug measured after 20 mins in absence of S9 fraction by microsome assay; format: toxicity; settings: salmonella enterica subsp. enterica serovar typhimurium, microsomes
[36] = Mutagenicity in Salmonella typhimurium TA100 assessed as revertant/ug measured after 20 mins in presence of S9 fraction by microsome assay; format: toxicity, subcellular; settings: salmonella enterica subsp. enterica serovar typhimurium, s9, 20 min
RAW264.7 [37] = experiment: Genotoxicity in mouse RAW264.7 cells assessed as mitotic index at 1880 uM measured after 24 hrs by micronucleus test (reference value: 40 to 249); format: toxicity, cell-based; settings: raw264.7, 24 h
HepG2 [38] = experiment: Genotoxicity in human HepG2 assessed as number of micronucleated cells at 188 uM measured after 24 hrs by micronucleus test (reference value: 14 to 18); format: toxicity, cell-based; settings: hepg2, 24 h
HepG2 [39] = experiment: Genotoxicity in human HepG2 assessed as mitotic index at 3760 uM measured after 24 hrs by micronucleus test (reference value: 61 to 108); format: toxicity, cell-based; settings: hepg2, 24 h
RAW264.7 [40] = experiment: Genotoxicity in mouse RAW264.7 cells assessed as mitotic index at 376 uM measured after 24 hrs by micronucleus test (reference value: 40 to 249); format: toxicity, cell-based; settings: raw264.7, 24 h
[41] = Mutagenicity in Salmonella typhimurium TA102 measured after 20 mins in absence of S9 fraction by microsome assay; format: toxicity; settings: salmonella enterica subsp. enterica serovar typhimurium, microsomes, dose 5-100 µg
[42] = Mutagenicity in Salmonella typhimurium TA100 measured after 20 mins in absence of S9 fraction by microsome assay; format: toxicity; settings: salmonella enterica subsp. enterica serovar typhimurium, microsomes, dose 5-100 µg
[43] = Mutagenicity in Salmonella typhimurium TA102 measured after 20 mins in presence of S9 fraction by microsome assay; format: toxicity, subcellular; settings: salmonella enterica subsp. enterica serovar typhimurium, s9, 20 min, dose 5-100 µg
[44] = Selectivity index, ratio of GI50 for mouse RAW264.7 cells assessed as reduction in cell viability measured after 24 hrs by WST1 assay to IC50 for antitrypanosomal activity against Trypanosoma cruzi Y axenic amastigotes infected in African green monkey Vero cells; format: toxicity; settings: read-out: Selectivity Index
RAW264.7 [45] = experiment: Genotoxicity in mouse RAW264.7 cells assessed as mitotic index at 3760 uM measured after 24 hrs by micronucleus test (reference value: 40 to 249); format: toxicity, cell-based; settings: raw264.7, 24 h
[46] = Mutagenicity in Salmonella typhimurium YG1024 at 5 to 100 ug/plate after 20 mins by microsome assay; format: toxicity; settings: salmonella enterica subsp. enterica serovar typhimurium, microsomes, dose 5-100 µg
[47] = Genotoxicity in human HepG2 assessed as survival at 1880 uM measured after 24 hrs by micronucleus test (reference value: 100%); format: toxicity, cell-based; settings: HepG2 cells, read-out: Survival
[48] = Mutagenicity in Salmonella typhimurium TA97 assessed as revertant/ug measured after 20 mins in presence of S9 fraction by microsome assay; format: toxicity, subcellular; settings: salmonella enterica subsp. enterica serovar typhimurium, s9, 20 min
HepG2 [49] = experiment: Genotoxicity in human HepG2 assessed as mitotic index at 376 uM measured after 24 hrs by micronucleus test (reference value: 61 to 108); format: toxicity, cell-based; settings: hepg2, 24 h
HepG2 [50] = experiment: Genotoxicity in human HepG2 assessed as number of micronucleated cells at 1880 uM measured after 24 hrs by micronucleus test (reference value: 14 to 18); format: toxicity, cell-based; settings: hepg2, 24 h

`CCOC(=O)c1cn(-c2c([N+](=O)[O-])ncn2C)nn1` gave an Activity [1] of 2.19 revertants/µg, a viability at 24 h, 376 µM [2] of 99% and an Activity (RAW264.7 [3]) of 11. The viability at 24 h, 1880 µM [4] was 95%, the selectivity ratio at 24 h [5] was > 8.3 and the Activity (HepG2 [6]) was 35. For the same molecule, the Activity (RAW264.7 [7]) was “Non-Toxic”, the Activity (RAW264.7 [8]) was 10 and the Activity [9] was “Toxic”. The Activity [10] was “Non-Toxic”, the Activity [11] was “Toxic” and the IC50 (Trypanosoma cruzi [12]) was 45.3 µM. For the same molecule, the IC50 (Trypanosoma cruzi [13]) was 393 µM, the Activity [14] was “Toxic” and the Activity [15] was “Non-Toxic”. The viability at 24 h, 376 µM [16] was 99%, the GI50 at 24 h [17] was > 376 µM and the Activity [18] was “Non-Toxic”. The Activity [19] was “Toxic”, the Activity (RAW264.7 [20]) was 13 and the viability at 24 h, 188 µM [21] was 99%. The viability at 24 h, 3760 µM [22] was 90%, the Activity [23] was “Toxic” and the viability at 24 h, 188 µM [24] was 99%. The selectivity ratio at 24 h [25] was > 8.3, the Activity_index (HepG2 [26]) was 60 and the selectivity ratio at 24 h [27] was > 0.95. The Activity (HepG2 [28]) was “Toxic”, the viability at 24 h, 3760 µM [29] was 90% and the Activity_index (RAW264.7 [30]) was 58. The Activity_index (HepG2 [31]) was 55, the Activity (HepG2 [32]) was 21 and the Activity (RAW264.7 [33]) was 13. The GI50 at 24 h [34] was > 376 µM, the Activity [35] was 3.54 revertants/µg and the Activity [36] was 3.36 revertants/µg. For the same molecule, the Activity_index (RAW264.7 [37]) was 100, the Activity (HepG2 [38]) was 17 and the Activity_index (HepG2 [39]) was 52. The Activity_index (RAW264.7 [40]) was 80, the Activity [41] was “Toxic” and the Activity [42] was “Toxic”. The Activity [43] was “Toxic”, the selectivity ratio at 24 h [44] was > 0.95 and the Activity_index (RAW264.7 [45]) was 78. For the same molecule, the Activity [46] was “Non-Toxic”, the viability at 24 h, 1880 µM [47] was 97% and the Activity [48] was 0.714 µg. It also gave an Activity_index (HepG2 [49]) of 50 and an Activity (HepG2 [50]) of 32.
With `Cn1cnc([N+](=O)[O-])c1-n1cncn1` the IC50 (Trypanosoma cruzi [12]) was 354 µM.
For `COC(=O)c1cn(-c2c([N+](=O)[O-])ncn2C)nn1`, the IC50 (Trypanosoma cruzi [12]) was 31.3 µM.

From ChEMBL document CHEMBL4680133, “Novel nitroimidazole derivatives evaluated for their trypanocidal, cytotoxic, and genotoxic activities” (Eur J Med Chem, 2020)
